{"source": "patent US6699686B1", "about": "“Modified nuclear glucocorticoid receptor, fusion protein, and DNA fragments coding for said receptor and said fusion protein” (Association pour le Development de la Recherche en …, priority 1996, dated 2004)", "molecular_target": "T1, Cre-LBD[GR(I747/T)] (Homo sapiens, UniProt P04150, I747T)", "T1 construct": "the region containing the mutated LBD of HG1 [aa 500-777]; Cre recombinase aa 1-343 (bacteriophage P1); F region of the human estrogen receptor (aa 553-595); expressed in transfected cells", "T1 sequence (P04150 500-777 I747T)": "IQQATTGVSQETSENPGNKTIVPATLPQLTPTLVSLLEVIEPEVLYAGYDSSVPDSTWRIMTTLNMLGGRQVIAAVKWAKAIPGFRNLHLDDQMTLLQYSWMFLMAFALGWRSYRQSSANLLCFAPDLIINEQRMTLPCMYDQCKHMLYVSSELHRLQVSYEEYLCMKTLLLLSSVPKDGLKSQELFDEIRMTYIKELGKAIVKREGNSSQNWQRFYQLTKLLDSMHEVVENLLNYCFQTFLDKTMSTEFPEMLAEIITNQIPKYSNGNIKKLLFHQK", "experiment": "PCR test of excision between loxP sites after transient transfection of pCre-LBD[GR(I747/T)] in RXRα+/−(LNL) F9 cells", "assay_type": "cell-based", "conditions": "ligand 10^−6 M, 72 hours, murine F9 RXRα+/−(LNL) cells", "experimental": "[optionally cotransfected with 5 μg of the vector pRXRα^(LNL) for the HeLa cells] with the aid of an electroporator (Bio-Rad gene pulser), set at 200 V and 960 μF. The cells were then inoculated at 10^6 cells per 100 mm dish and treated, if necessary, with ligands.\nThe DNA amplifications were carried out using the “Polymerase Chain Reaction” (PCR) technique according to the protocol described by Chen and Evans (60). The primers used are: SB211 and PZ105, having respectively as nucleotide sequence 5′-[…]-3′ (SEQ ID NO: 10) and 5′-[…]-3′ (SEQ ID NO: 11). After denaturation for 8 min at 94° C., 2.5 units of Taq polymerase are added. The amplification is carried out by performing 35 cycles (30 sec. at 94° C., 30 sec. at 50° C.) followed by one cycle (30 sec. at 94° C., 30 sec. at 50° C., 5 min at 72° C.), the product of which is stored at 4° C.\nThe products of the reactions were separated on polyacrylamide (10%) or agarose (2.5%) gel. The DNA was visualized by UV followed by ethidium bromide staining, or by Southern blotting (42).\nThe products of the reaction were separated on acrylamide gel and stained with ethidium bromide."}
{"smiles": "C[C@]12CCC(=O)C=C1CC[C@@H]1[C@@H]2[C@@H](O)C[C@@]2(C)[C@H]1CC[C@]2(O)C(=O)CO", "note": "[Cortisol, cortisol]", "values": [{"measurement": "excision of sequences between loxP sites (191 bp PCR fragment of recombinant allele)", "value": "no fragment of this size is observed"}]}
